One test has as its target NRAS G12D C118S (Homo sapiens (Human), UniProt P01111, C118S/G12D). The test can be described thus: NRas G12D Surface Plasmon Resonance (SPR) binding assay. Conditions: Avi-tagged biotinylated NRAS G12D C118S on streptavidin chip, 25° C., 1:1 kinetic or steady-state fit. In short, it runs like this: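 Biotinylated Avi-tagged NRAS G12D C118S was captured at about 600 RU on a streptavidin chip alongside a blank reference channel. Compounds were run as 10-point 1:3 dilution series in HBS-P+ pH 7.4 with 5 mM MgCl2 and 3% DMSO, using a 2–4% DMSO solvent correction. A control compound at 10 μM was injected periodically to check protein activity.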

The test system of test [1] is THP-1 cells expressing G12D (NRAS G12D). Nature of the test: Inhibition of NRAS G12D-mediated phosphorylation of ERK (AlphaLISA p-ERK1/2) in THP-1 cells. Format: cell-based. The note with it: 2 hours incubation, HBSS with 0% or 10% FBS, p-ERK1/2 (Thr202/Tyr204) AlphaLISA, read-out: pERK THP-1 IC50. In outline: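 THP-1 cells expressing NRAS G12D, seeded in HBSS with 0% or 10% FBS, were exposed to test compound (1% DMSO final) for 2 h. p-ERK1/2 (Thr202/Tyr204) read by AlphaLISA SureFire Ultra. IC50 from curves normalized to no-inhibitor (100%) and 1 μM trametinib (0%) controls.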
A general note: Alpha assays give light when donor and acceptor beads are brought close together.

The record followed here is patent publication US20260022118A1, “HETEROCYCLIC COMPOUNDS AS NRAS INHIBITORS” (Board of Regents, The University of Texas System, priority 2023, published 2026).

Molecules are shown by their SMILES. Where two headings read alike, the source gives them in different places.

NRAS G12D C118S, sequence (P01111 whole entry G12D/C118S): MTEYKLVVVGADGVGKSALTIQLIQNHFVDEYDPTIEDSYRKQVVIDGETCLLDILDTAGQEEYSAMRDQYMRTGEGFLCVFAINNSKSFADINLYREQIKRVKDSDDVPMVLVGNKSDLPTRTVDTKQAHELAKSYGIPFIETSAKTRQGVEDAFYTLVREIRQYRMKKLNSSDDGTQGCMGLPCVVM

For the compound `C#Cc1c(F)ccc2cc(O)cc(-c3ncc4c([C@H]5[C@@H]6CNC[C@@H]65)nn(C(C)C)c4c3F)c12` [Example 24, 4-(3-((1R,5S,6r)-3-azabicyclo[3.1.0]hexan-6-yl)-7-fluoro-1-isopropyl-1H-pyrazolo[4,3-c]pyridin-6-yl)-5-ethynyl-6-fluoronaphthalen-2-ol], on NRAS G12D C118S, the Kd is 824 nM. Further, the IC50 in test [1] (Homo sapiens, THP-1, 2 h) turned out to be 10700 nM.
For `C#Cc1c(F)ccc2cc(O)cc(-c3nc(OC4CNC4)c4c([C@H]5[C@@H]6CNC[C@@H]65)nn(C5CC5)c4c3F)c12` [Example 69, 4-(4-(azetidin-3-yloxy)-3-((1R,5S,6r)-3-azabicyclo[3.1.0]hexan-6-yl)-1-cyclopropyl-7-fluoro-1H-pyrazolo[4,3-c]pyridin-6-yl)-5-ethynyl-6-fluoronaphthalen-2-ol] the same measures were 1790 nM and more than 10000 nM.
For `C#Cc1c(F)ccc2cc(O)cc(-c3nc(CC)c4c([C@H]5[C@@H]6CNC[C@@H]65)nn(C5CC5)c4c3F)c12` [Example 72, 4-(3-((1R,5S,6r)-3-azabicyclo[3.1.0]hexan-6-yl)-1-cyclopropyl-4-ethyl-7-fluoro-1H-pyrazolo[4,3-c]pyridin-6-yl)-5-ethynyl-6-fluoronaphthalen-2-ol] the same measures were 0.594 nM and 24.4 nM.
For `C#Cc1c(F)ccc2cc(O)cc(-c3ncc4c([C@H]5[C@@H]6CNC[C@@H]65)c(C#N)n(C)c4c3F)c12` [Example 58, 3-((1R,5S,6s)-3-azabicyclo[3.1.0]hexan-6-yl)-6-(8-ethynyl-7-fluoro-3-hydroxynaphthalen-1-yl)-7-fluoro-1-methyl-1H-pyrrolo[3,2-c]pyridine-2-carbonitrile] the same measures were 300 nM and 4800 nM.
Compound `C#Cc1c(F)ccc2cc(O)cc(-c3ncc4c(C5CC6CCC5CN6)nn(C)c4c3F)c12` (centres unmarked) [Example 44, 4-[3-(2-azabicyclo[2.2.2]octan-5-yl)-7-fluoro-1-methyl-pyrazolo[4,3-c]pyridin-6-yl]-5-ethynyl-6-fluoro-naphthalen-2-ol] had a Kd at NRAS G12D C118S of 201 nM. In addition, the IC50 in test [1] worked out at 6740 nM.
The compound `C#Cc1c(F)ccc2cc(O)cc(-c3nc(Nc4ccccc4)c4c([C@H]5[C@@H]6CNC[C@@H]65)nn(C5CC5)c4c3F)c12` [Example 83, 4-(3-((1R,5S,6r)-3-azabicyclo[3.1.0]hexan-6-yl)-1-cyclopropyl-7-fluoro-4-(phenylamino)-1H-pyrazolo[4,3-c]pyridin-6-yl)-5-ethynyl-6-fluoronaphthalen-2-ol] displayed a dissociation constant (Kd) at NRAS G12D C118S of 49.5 nM. Moreover, the IC50 in test [1] (Homo sapiens, THP-1, 2 h) amounted to 205 nM.
On the same counts, the results for `C#Cc1c(F)ccc2cc(O)cc(-c3ncc4c([C@H]5[C@@H]6CNC[C@@H]65)nn(C)c4c3F)c12` [Example 3, 4-(3-((1R,5S,6r)-3-azabicyclo[3.1.0]hexan-6-yl)-7-fluoro-1-methyl-1H-pyrazolo[4,3-c]pyridin-6-yl)-5-ethynyl-6-fluoronaphthalen-2-ol] are 85 nM and 925 nM.
For `C#Cc1c(F)ccc2cc(O)cc(-c3nc(OC(F)F)c4c([C@H]5[C@@H]6CNC[C@@H]65)nn(C5CC5)c4c3F)c12` [Example 66, 4-(3-((1R,5S,6r)-3-azabicyclo[3.1.0]hexan-6-yl)-1-cyclopropyl-4-(difluoromethoxy)-7-fluoro-1H-pyrazolo[4,3-c]pyridin-6-yl)-5-ethynyl-6-fluoronaphthalen-2-ol] the same measures were 114 nM and 1190 nM.
On to `C#Cc1c(F)ccc2cc(O)cc(-c3ncc4c([C@H]5[C@@H]6CNC[C@@H]65)c(C)n(C)c4c3F)c12` [Example 21, 4-(3-((1R,5S,6s)-3-azabicyclo[3.1.0]hexan-6-yl)-7-fluoro-1,2-dimethyl-1H-pyrrolo[3,2-c]pyridin-6-yl)-5-ethynyl-6-fluoronaphthalen-2-ol], for which the Kd at NRAS G12D C118S was 1840 nM. Further, the IC50 in test [1] (Homo sapiens, THP-1, 2 h) came out at 13000 nM.
On the same counts, the results for `C#Cc1c(F)ccc2cc(N)cc(-c3nc(CC)c4c([C@H]5[C@@H]6CNC[C@@H]65)nn(C5CC5)c4c3F)c12` [Example 88, 4-(3-((1R,5S,6r)-3-azabicyclo[3.1.0]hexan-6-yl)-1-cyclopropyl-4-ethyl-7-fluoro-1H-pyrazolo[4,3-c]pyridin-6-yl)-5-ethynyl-6-fluoronaphthalen-2-amine] are 4.58 nM and 227 nM.
For `C#Cc1c(F)ccc2cc(O)cc(-c3nc(N(C)C(C)C)c4c([C@H]5[C@@H]6CNC[C@@H]65)nn(C5CC5)c4c3F)c12` [Example 75, 4-(3-((1R,5S,6r)-3-azabicyclo[3.1.0]hexan-6-yl)-1-cyclopropyl-7-fluoro-4-(isopropyl(methyl)amino)-1H-pyrazolo[4,3-c]pyridin-6-yl)-5-ethynyl-6-fluoronaphthalen-2-ol] the same measures were 25 nM and 248 nM.
For `C#Cc1c(F)ccc2cc(O)cc(-c3nc(NC)c4c([C@H]5[C@@H]6CNC[C@@H]65)nn(C5CC5)c4c3F)c12` [Example 76, 4-(3-((1R,5S,6r)-3-azabicyclo[3.1.0]hexan-6-yl)-1-cyclopropyl-7-fluoro-4-(methylamino)-1H-pyrazolo[4,3-c]pyridin-6-yl)-5-ethynyl-6-fluoronaphthalen-2-ol] the same measures were 28.3 nM and 547 nM.
As for `C#Cc1c(F)ccc2cc(O)cc(-c3ncc4c(N5C[C@H]6CC[C@@H]5CN6)nn(C)c4c3F)c12` [Example 60, 4-(3-((1R,4R)-2,5-diazabicyclo[2.2.2]octan-2-yl)-7-fluoro-1-methyl-1H-pyrazolo[4,3-c]pyridin-6-yl)-5-ethynyl-6-fluoronaphthalen-2-ol], on NRAS G12D C118S, the Kd is 2550 nM. In test [1] (Homo sapiens, THP-1, 2 h), the 50% inhibitory concentration (IC50) is 23000 nM.
Take `C#Cc1c(F)ccc2cc(O)cc(-c3ncc4c([C@H]5[C@@H]6CNC(C(=O)OC)[C@@H]65)nn(C)c4c3F)c12` (stereo partly drawn) [Example 96, methyl (1S,5R,6S)-6-(6-(8-ethynyl-7-fluoro-3-hydroxynaphthalen-1-yl)-7-fluoro-1-methyl-1H-pyrazolo[4,3-c]pyridin-3-yl)-3-azabicyclo[3.1.0]hexane-2-carboxylate]: the affinity at NRAS G12D C118S, expressed as Kd, was 904 nM. Moreover, the IC50 in test [1] (Homo sapiens, THP-1, 2 h) is 360 nM.
On the same counts, the results for `C#Cc1c(F)ccc2cc(O)cc(-c3nc(CC(C)C)c4c([C@H]5[C@@H]6CNC[C@@H]65)nn(C5CC5)c4c3F)c12` [Example 73, 4-(3-((1R,5S,6r)-3-azabicyclo[3.1.0]hexan-6-yl)-1-cyclopropyl-7-fluoro-4-isobutyl-1H-pyrazolo[4,3-c]pyridin-6-yl)-5-ethynyl-6-fluoronaphthalen-2-ol] are 212 nM and 1300 nM.
On the same counts, the results for `C#Cc1c(F)ccc2cc(O)cc(-c3nc(OCC)c4c([C@H]5[C@@H]6CNC[C@@H]65)nn(C5CC5)c4c3F)c12` [Example 63, 4-(3-((1R,5S,6r)-3-azabicyclo[3.1.0]hexan-6-yl)-1-cyclopropyl-4-ethoxy-7-fluoro-1H-pyrazolo[4,3-c]pyridin-6-yl)-5-ethynyl-6-fluoronaphthalen-2-ol] are 8.29 nM and 185 nM.

As a reminder, the Kd is a measure of binding affinity in units of concentration. High values mean weaker binding, low ones tighter binding. As usually defined, the IC50 is the concentration needed to halve the response being measured.
